# Test results: ChEMBL document CHEMBL1201862, “PubChem BioAssay data set” (2004)
# Activity calls are given as the source filed them.
# Experiments:
# Major prion protein = Major prion protein (Homo sapiens, UniProt P04156); type: functional, cell-based
# [1] = molecular target: T1, Nuclear receptor subfamily 0 group B member 1 (Homo sapiens, UniProt P51843); test: Luminescence-based cell-based high throughput dose response assay for inhibitors of the orphan nuclear receptor subfamily 0, group B, member 1 (DAX1; NR0B1). [Related pubchem assays (depositor defined):AID504766, AID504790]; type: functional
# T1 sequence (P51843 whole entry): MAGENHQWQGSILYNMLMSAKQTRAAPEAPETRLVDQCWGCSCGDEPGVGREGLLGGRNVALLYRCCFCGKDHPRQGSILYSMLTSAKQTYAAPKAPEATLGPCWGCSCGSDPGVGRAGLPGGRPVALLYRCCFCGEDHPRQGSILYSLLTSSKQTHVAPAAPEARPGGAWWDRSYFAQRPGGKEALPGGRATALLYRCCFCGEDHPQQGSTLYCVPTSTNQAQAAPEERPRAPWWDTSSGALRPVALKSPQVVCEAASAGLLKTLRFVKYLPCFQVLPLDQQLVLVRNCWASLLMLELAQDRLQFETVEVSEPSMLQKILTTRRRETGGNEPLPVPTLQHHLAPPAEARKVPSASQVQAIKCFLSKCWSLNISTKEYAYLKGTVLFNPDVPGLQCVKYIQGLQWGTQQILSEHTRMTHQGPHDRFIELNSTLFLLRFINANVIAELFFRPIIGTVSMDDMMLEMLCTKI
# HEK293 = test: cells; type: functional, cell-based; settings: Homo sapiens
# [2] = molecular target: T2, RNA-binding protein pos-1 (Caenorhabditis elegans, UniProt G5EF15); test: disruptors of C. elegans POS-1 RNA interaction – biochemical, fluorescence polarization, dose response (AID 1964);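 note: purified POS-1 fused to maltose binding protein made in E. coli; potency of compounds blocking POS-1 binding to fluorescent RNA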
# T2 sequence (G5EF15 whole entry): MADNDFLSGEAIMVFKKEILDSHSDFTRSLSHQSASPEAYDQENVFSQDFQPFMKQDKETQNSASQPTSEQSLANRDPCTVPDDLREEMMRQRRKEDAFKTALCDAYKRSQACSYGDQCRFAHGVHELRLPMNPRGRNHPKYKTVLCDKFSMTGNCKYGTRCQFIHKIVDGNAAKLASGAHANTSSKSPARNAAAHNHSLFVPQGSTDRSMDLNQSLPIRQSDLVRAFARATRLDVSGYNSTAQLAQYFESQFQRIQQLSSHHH
# [3] = molecular target: UDP-galactopyranose mutase (Mycobacterium tuberculosis, UniProt P9WIQ1); test: Inhibitors of Mycobacterium tuberculosis UDP-galactopyranose mutase (UGM) enzyme Measured in Biochemical System Using Plate Reader - 2105-02_Inhibitor_Dose_CherryPick_Activity. [Related pubchem assays (depositor defined):AID504439]
# Sequence of UDP-galactopyranose mutase (P9WIQ1 whole entry): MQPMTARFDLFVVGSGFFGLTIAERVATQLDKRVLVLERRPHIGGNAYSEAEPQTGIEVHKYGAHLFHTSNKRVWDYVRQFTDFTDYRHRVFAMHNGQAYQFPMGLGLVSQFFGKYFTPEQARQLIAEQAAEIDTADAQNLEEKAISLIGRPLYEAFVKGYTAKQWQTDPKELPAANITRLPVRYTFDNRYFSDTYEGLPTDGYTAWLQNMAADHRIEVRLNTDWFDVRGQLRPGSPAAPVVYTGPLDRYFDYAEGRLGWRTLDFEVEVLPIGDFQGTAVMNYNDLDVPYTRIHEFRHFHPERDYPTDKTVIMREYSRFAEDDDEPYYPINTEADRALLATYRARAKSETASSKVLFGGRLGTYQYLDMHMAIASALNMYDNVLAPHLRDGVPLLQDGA
# Protein RecA = molecular target: T3, Protein RecA (Mycobacterium tuberculosis, UniProt P9WHJ3); test: Fluorescence Cell-Free Homogeneous Dose Retest to Identify Inhibitors of RecA-Intein Splicing Activity. [Related pubchem assays (depositor defined):AID2097, AID2223, AID489010, AID492950]; type: functional
# T3 sequence (P9WHJ3 whole entry): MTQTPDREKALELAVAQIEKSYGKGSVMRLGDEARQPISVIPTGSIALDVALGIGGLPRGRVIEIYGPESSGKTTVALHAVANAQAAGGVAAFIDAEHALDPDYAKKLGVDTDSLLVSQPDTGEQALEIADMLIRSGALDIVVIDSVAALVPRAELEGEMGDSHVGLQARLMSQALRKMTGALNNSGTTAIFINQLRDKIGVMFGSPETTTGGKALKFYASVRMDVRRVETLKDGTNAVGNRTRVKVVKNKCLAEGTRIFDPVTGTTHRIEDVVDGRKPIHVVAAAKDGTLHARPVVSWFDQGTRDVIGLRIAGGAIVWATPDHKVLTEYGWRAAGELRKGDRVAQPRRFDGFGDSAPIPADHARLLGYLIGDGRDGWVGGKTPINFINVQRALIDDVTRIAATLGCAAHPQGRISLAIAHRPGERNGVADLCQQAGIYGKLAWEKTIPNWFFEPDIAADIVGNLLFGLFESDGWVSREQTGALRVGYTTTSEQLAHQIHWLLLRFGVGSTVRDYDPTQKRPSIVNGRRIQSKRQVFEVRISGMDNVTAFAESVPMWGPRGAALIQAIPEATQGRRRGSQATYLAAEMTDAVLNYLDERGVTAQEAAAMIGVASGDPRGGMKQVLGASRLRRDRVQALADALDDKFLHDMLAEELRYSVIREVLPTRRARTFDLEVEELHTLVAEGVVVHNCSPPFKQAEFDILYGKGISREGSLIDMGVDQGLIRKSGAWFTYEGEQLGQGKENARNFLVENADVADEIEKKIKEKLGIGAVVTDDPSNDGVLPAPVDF
# [4] = molecular target: T4, Replicative DNA helicase DnaB (Mycobacterium tuberculosis, UniProt P9WMR3); test: DnaB intein splicing inhibitors, dose response, biochemical, cell-free fluorescence (AID 449749); type: functional
# T4 sequence (P9WMR3 whole entry): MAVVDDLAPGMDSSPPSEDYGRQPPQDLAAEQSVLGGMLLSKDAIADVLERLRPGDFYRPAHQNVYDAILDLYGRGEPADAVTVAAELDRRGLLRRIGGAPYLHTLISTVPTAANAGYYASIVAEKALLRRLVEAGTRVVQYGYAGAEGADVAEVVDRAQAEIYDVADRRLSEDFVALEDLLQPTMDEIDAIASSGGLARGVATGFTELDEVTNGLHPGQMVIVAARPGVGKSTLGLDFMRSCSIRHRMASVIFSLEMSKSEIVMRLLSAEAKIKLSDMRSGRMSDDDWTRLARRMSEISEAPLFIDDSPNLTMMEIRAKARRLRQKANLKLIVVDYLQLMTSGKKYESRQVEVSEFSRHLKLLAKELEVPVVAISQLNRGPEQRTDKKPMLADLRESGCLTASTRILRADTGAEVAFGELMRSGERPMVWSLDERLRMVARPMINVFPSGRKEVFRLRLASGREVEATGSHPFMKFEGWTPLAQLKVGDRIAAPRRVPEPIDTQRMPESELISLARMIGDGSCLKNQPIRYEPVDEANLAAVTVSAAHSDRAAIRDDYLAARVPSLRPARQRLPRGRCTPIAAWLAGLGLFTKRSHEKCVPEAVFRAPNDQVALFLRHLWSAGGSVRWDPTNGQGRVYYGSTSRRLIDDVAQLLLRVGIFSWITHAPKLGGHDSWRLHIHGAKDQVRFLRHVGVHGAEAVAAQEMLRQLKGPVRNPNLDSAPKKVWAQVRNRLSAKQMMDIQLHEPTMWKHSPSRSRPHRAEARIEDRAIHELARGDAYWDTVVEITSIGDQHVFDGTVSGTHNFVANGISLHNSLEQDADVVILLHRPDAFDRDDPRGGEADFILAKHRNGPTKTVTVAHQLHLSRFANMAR
# BJ [5] = test: BJ-TERT fibroblast viability loss – cell-based, RAS-independent, luminescence, dose response (AID 1933); type: functional; settings: Homo sapiens
# ORF 73 = molecular target: T5, ORF 73 (Human herpesvirus 8, UniProt O40947); test: KSHV LANA DNA-binding disruption – biochemical, fluorescence polarization, cherry-picked samples, dose response (AID 504725); design: species or system Human gammaherpesvirus 8;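 note: fluorescence polarization of a labeled DNA duplex reporting LANA DNA binding; potency is for inhibitors that block LANA binding to the DNA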
# T5 sequence (O40947 whole entry): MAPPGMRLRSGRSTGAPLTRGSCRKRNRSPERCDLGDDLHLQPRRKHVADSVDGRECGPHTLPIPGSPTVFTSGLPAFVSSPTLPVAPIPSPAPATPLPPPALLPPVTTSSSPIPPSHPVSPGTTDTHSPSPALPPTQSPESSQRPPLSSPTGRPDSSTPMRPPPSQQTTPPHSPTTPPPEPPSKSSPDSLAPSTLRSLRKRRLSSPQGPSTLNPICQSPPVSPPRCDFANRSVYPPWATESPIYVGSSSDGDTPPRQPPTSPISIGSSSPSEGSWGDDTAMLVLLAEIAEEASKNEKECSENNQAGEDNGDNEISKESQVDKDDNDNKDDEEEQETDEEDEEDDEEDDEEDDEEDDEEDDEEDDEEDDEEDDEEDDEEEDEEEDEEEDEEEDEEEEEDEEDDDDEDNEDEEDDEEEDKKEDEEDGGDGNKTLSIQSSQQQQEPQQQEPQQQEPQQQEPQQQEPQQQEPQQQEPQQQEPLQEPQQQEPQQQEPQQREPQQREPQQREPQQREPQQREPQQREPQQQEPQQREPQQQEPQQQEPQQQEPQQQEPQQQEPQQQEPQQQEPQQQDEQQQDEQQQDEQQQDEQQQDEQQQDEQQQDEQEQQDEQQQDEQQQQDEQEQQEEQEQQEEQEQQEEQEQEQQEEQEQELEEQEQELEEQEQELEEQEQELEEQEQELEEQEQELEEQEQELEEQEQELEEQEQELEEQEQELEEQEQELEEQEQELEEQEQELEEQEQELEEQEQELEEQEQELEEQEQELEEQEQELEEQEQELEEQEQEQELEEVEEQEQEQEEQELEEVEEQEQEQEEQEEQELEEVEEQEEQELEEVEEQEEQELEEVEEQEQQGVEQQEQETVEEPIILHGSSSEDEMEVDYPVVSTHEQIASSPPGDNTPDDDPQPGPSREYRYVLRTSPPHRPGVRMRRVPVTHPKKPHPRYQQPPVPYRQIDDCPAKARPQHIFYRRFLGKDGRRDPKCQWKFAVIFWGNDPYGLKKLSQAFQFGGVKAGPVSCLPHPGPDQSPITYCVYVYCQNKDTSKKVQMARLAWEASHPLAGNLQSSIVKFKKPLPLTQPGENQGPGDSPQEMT
# [6] = DRD fibroblast viability loss – cell-based, non-viral oncogenic, luminescence, dose response (AID 1934); type: functional; settings: Homo sapiens
# BJ [7] = test: cells; type: functional, cell-based; settings: Homo sapiens
# INS1 = test: INS-1E survival protection against cytokine death – cell-based, luminescence, retest, dose response (AID 449756); type: functional; settings: Rattus norvegicus;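 note: cell death triggered by IL-1 beta plus TNF-alpha plus IFN-gamma mixture; protective hits raise ATP signal compared with cytokine alone wells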
# Protein S100-A4 = Protein S100-A4 (Homo sapiens, UniProt P26447); test: human S100A4 peptide interaction inhibition curves – biochemical, fluorescence polarization, cherry-picked hits, dose response (AID 687001); type: functional
# Sequence of Protein S100-A4 (P26447 whole entry): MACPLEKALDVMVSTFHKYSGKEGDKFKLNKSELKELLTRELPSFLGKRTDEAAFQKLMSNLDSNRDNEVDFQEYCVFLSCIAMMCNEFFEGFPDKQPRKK
# BJ [8] = test: BJ-TERT-LT-ST fibroblast viability loss – cell-based, RAS-independent, luminescence, dose response (AID 1935); type: functional; settings: Homo sapiens;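 note: BJ fibroblasts immortalized with TERT plus LT and ST oncogenes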
# HeLa = test: viability loss in HeLa cells – cell-based, 24 h, cherry-picked samples, cytotoxicity control, dose response (AID 504726); type: functional; settings: Homo sapiens;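 note: potency for cytotoxicity as loss of luminescence signal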
# Keap1/Nrf2 = Keap1/Nrf2 (Homo sapiens, UniProt Q14145); test: disruptors of Keap1 binding to Nrf2 peptide – biochemical, fluorescence polarization, cherry-picked samples, dose response (AID 588683)
# Sequence of Keap1/Nrf2 (Q16236 whole entry): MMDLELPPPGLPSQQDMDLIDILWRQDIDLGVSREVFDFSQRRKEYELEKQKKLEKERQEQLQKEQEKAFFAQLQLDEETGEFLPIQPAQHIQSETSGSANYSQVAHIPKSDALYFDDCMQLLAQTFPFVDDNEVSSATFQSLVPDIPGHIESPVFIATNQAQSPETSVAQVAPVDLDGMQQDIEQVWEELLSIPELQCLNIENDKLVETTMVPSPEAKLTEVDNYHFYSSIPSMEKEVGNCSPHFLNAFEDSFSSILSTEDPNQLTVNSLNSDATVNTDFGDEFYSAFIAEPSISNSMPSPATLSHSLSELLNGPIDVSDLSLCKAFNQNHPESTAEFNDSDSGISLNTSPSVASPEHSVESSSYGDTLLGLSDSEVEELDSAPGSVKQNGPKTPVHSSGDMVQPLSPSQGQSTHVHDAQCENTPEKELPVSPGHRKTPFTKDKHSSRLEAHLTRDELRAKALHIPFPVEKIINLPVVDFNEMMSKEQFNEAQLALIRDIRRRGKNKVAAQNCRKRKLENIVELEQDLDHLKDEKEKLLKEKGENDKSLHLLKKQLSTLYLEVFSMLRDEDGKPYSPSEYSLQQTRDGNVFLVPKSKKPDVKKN
# Sequence of Keap1/Nrf2 (Q14145 whole entry): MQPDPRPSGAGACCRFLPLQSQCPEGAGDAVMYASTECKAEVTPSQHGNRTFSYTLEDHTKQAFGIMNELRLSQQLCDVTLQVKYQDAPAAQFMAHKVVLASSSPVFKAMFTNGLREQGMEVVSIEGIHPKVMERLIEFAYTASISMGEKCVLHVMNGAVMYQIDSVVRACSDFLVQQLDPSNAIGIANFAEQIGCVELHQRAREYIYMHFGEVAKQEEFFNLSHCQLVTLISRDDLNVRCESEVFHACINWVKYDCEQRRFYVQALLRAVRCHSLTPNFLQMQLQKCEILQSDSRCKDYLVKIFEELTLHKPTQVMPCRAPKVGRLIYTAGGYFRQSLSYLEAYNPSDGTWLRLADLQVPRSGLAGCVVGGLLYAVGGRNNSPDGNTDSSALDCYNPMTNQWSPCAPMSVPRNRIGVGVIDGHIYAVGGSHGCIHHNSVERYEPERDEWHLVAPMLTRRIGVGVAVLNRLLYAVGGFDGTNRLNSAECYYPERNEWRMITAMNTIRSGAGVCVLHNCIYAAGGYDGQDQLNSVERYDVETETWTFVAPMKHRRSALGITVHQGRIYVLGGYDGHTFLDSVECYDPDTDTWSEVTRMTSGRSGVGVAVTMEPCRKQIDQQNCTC
# Plasmodium falciparum [9] = test: Primary qHTS for delayed death inhibitors of the malarial parasite plastid, 48 hour incubation. [Related pubchem assays (depositor defined):AID488752, AID488774, AID504848, AID504850]; type: functional; settings: read-out: Potency
# Plasmodium falciparum [10] = test: Primary qHTS for delayed death inhibitors of the malarial parasite plastid, 96 hour incubation. [Related pubchem assays (depositor defined):AID488745, AID488752, AID488774, AID504848, AID504850]; type: functional; settings: read-out: Potency
# Hexokinase HKDC1 = molecular target: T6, Hexokinase HKDC1 (Homo sapiens, UniProt Q2TB90); test: SAR analysis of small molecule inhibitors of hexokinase domain containing I (HKDC1). [Related pubchem assays (depositor defined):AID493160, AID493190]; type: functional
# T6 sequence (Q2TB90 whole entry): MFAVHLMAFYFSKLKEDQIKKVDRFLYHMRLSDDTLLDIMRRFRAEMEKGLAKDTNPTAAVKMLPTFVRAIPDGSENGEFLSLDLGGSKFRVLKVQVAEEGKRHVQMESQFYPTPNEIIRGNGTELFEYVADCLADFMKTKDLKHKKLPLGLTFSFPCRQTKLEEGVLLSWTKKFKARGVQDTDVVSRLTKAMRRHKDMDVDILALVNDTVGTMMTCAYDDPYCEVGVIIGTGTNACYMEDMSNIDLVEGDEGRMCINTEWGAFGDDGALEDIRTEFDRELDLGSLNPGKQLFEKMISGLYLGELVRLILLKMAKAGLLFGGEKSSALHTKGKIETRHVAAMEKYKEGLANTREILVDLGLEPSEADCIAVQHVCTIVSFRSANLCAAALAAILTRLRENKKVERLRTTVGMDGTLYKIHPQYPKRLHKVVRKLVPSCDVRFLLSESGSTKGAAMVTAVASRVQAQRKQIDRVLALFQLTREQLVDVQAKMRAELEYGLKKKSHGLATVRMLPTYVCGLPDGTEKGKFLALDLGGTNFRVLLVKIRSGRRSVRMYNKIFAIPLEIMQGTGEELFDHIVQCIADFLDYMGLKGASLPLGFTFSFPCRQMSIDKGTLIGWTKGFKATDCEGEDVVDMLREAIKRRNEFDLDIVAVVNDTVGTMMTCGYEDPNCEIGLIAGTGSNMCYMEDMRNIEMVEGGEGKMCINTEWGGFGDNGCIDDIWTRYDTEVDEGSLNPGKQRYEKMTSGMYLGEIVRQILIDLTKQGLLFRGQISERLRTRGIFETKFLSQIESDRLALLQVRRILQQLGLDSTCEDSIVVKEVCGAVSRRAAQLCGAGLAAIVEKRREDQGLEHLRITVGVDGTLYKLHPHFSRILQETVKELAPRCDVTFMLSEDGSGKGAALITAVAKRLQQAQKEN
# Hexokinase-1 = Hexokinase-1 (Homo sapiens, UniProt P19367); test: SAR analysis of small molecule inhibitors of hexokinase domain containing I (HKDC1) in the hexokinase 1 selectivity assay. [Related pubchem assays (depositor defined):AID493160, AID493190]; type: functional
# Sequence of Hexokinase-1 (P19367 whole entry, the tested form may be a part): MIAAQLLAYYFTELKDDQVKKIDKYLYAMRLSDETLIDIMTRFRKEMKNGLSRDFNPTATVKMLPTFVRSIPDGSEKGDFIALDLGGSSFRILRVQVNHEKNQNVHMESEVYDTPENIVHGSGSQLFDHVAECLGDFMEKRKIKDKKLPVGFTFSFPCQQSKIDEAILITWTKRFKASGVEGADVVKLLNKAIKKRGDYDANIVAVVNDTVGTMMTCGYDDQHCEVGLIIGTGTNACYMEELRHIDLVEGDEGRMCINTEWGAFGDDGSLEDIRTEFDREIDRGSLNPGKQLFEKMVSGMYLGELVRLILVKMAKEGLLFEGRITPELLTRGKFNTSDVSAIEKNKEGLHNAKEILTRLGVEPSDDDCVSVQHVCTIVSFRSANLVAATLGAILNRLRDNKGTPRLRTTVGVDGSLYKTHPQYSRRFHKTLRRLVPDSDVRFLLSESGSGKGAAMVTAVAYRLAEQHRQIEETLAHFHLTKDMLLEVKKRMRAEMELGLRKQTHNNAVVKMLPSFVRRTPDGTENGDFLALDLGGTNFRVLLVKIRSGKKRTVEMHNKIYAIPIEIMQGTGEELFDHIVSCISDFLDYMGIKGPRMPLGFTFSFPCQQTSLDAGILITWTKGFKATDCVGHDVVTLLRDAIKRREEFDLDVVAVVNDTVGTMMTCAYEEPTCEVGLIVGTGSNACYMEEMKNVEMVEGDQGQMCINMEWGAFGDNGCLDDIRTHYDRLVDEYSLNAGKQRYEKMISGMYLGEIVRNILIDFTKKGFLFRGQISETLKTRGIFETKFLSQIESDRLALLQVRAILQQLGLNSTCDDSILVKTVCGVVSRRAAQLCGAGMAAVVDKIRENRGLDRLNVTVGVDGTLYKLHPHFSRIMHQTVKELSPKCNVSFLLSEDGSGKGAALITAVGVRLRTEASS
smiles,measurement,setting,value
CC(C)CSc1nnc2c3ccccc3n(C)c2n1,IC50,Major prion protein,4.37 µM (active)
same,IC50,cells,> 138 µM (inactive)
same,IC50,[1],> 67.5 µM (inactive)
same,IC50,HEK293,> 67.5 µM (inactive)
COCCNC(=O)Cn1cc(/C=C2\C(=O)NC(=O)N(c3ccccc3F)C2=O)c2ccccc21,EC50,[2],6.32 µM (active)
same,AC50,[3],32.1 µM (active)
CN1CCN(c2ccc([N+](=O)[O-])c3no[n+]([O-])c23)CC1,EC50,Protein RecA,> 380 µM (inactive)
same,AC50,[4],> 380 µM (inactive)
same,EC50,BJ [5],0.793 µM (active)
same,AC50,ORF 73,12.6 µM (active)
same,EC50,[6],5.89 µM (active)
same,EC50,BJ [7],2.37 µM (inconclusive)
same,AC50,INS1,1.83 µM (active)
same,AC50,Protein S100-A4,3.3 µM (active)
same,EC50,BJ [8],1.13 µM (inconclusive)
same,AC50,HeLa,2.57 µM (active)
same,AC50,Keap1/Nrf2,> 52 µM (inactive)
CN(C)C1(CNC(=O)c2ccc(Cl)c(S(N)(=O)=O)c2)CCCCC1,AC50,Plasmodium falciparum [9],9.29 µM (inactive)
same,AC50,Plasmodium falciparum [10],20.8 µM (inactive)
COc1cc2c(cc1OC)-c1cc(NCc3ccccc3)nc(=O)n1CC2,IC50,Hexokinase HKDC1,> 80 µM (inactive)
same,IC50,Hexokinase-1,> 80 µM (inactive)
